Assay results taken from patent publication US7202239B2, “Cyclohexylphenyl carboxamides tocolytic oxytocin receptor antagonists” (Wyeth, priority 2001, dated 2007).

Biological target: T1, human oxytocin receptor (Homo sapiens, UniProt P30559)
T1 sequence (P30559 1-389): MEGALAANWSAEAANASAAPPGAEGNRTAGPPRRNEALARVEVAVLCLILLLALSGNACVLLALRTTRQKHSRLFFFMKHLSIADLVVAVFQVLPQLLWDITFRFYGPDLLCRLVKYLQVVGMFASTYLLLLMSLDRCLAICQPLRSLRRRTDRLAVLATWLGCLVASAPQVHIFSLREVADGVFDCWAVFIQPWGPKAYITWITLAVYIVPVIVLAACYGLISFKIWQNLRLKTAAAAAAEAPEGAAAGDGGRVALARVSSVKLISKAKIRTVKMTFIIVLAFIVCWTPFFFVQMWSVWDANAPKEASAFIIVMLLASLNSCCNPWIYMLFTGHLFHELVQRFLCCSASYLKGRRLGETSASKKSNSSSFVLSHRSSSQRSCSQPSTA
Experiment: Oxytocin binding in CHO cell membranes expressing human oxytocin receptors
Conditions: [3H]oxytocin; for IC50: value in parentheses, read-out: OT (IC50); for inhibition at 0.1 µM / OT % inhibition at 100 nM: 100 nM; for inhibition at 0.1 µM: read-out: OT % inhibition at 100 nM
Description: Oxytocin Binding in Chinese Hamster Ovary Cell Membranes Expressing Human Oxytocin Receptors
Chinese Hamster Ovary (CHO) cells stably transfected with the human oxytocin receptor (cf. Tanizawa et al., U.S. Pat. No. 5,466,584 (1995) to Rohto Pharmaceutical Co. Ltd., Osaka, Japan) were obtained from M. Thibonnier, Case Western Reserve University School of Medicine, Cleveland, Ohio. A. Passaging and Amplification of Cells: CHO cells transfected with the human oxytocin receptors obtained from M. Thibonnier (pcDNA3.1 vector) are allowed to grow to confluency (approx. >90%) in T-150 flasks under sterile conditions, in a cell culture medium of F-12 Nutrient Mixture (HAM) with L-glutamine (Gibco Cat. # 11765-054) containing 15 mM HEPES (Gibco Cat. # 15630-080), 1% antibiotic/antimycotic (add 5 mL 100×, Gibco Cat. # 15240-062 per 500 mL F-12), 400 μg/mL of Geneticin (add 4 mL of 50 mg/mL per 500 mL F-12) and 10% Fetal Bovine Serum (Qualified, heat inactivated, Gibco Cat. # 16140-063). The medium is removed by aspiration and the cells are washed with 10 mL of Hank's Balanced Salt solution (Gibco Cat. # 14175-095). The salt solution is removed by aspiration and the cells trypsinized with 5 mL of trypsin-EDTA (0.05% trypsin, 0.53 mM EDTA-4Na, Gibco Cat. # 25300-070) for 1 min The trypsin is removed by aspiration and the cells dislodged by tapping. Cell Culture medium (e.g. 30 mL for 1:30 split) is immediately added and mixed well to inactivate trypsin. 1 mL of detached cells is added to new culture flasks containing fresh Cell Culture medium (e.g. into 25 mL per T-150 flask), and mixed gently. The cells are incubated at 37° C. in 5% CO2. The medium is changed at 3 to 4 days interval (or as appropriate). The cells grow to confluency (approx. >75%–95%) within 7–8 days. All steps are done under sterile conditions. B. Membrane Preparation: The cells are washed twice gently with Hank's Balanced Salt solution (eg, use 10 mL per T-150 flask). The excess solution is removed and the cells bathed for 15–30 min. in an enzyme-free Cell Dissociation Buffer (eg, use 8 mL Hank's Based, Gibco Cat. # 13150-016 per T-150 flask) until cells are loosened. The contents are transferred to centrifuge tubes (50 mL size) kept in ice bath. All subsequent steps are done at 4° C. The tubes are centrifuged at 300×g for 15 min (1380 rpm on SORVAL, Model RT6000D, using rotor for 50 mL tubes). The supernatant is discarded and the cells suspended in homogenizing buffer (10 mM Tris-HCl containing 0.25 M sucrose and 1 mM EDTA, pH 7.4) ensuring that the volume of the buffer is about ten times the volume of the cell pellet. The cells are pooled into a centrifuge tube (50 mL) and homogenized with a Polytron at setting 6 for 10 sec. The homogenate is transferred into a Potter-Elvjehm homogenizer and homogenized with 3 strokes. The homogenate is centrifuged at 1500×g for 10 min at 4° C. (3100 rpm using SORVAL, model RT6000D, using rotor for 50 mL tubes). The pellet is discarded. The supernatant is centrifuged at 100,000×g for 60 min. at 4° C. (Beckman L8-80M ultracentrifuge; spin at 37,500 rpm with rotor type 70 Ti for 50 mL tubes; 38,000 rpm with type 80Ti for 15 mL tubes; or 35,800 rpm with rotor type 45Ti). The supernantant is discarded and the pellet suspended in 3 to 4 mL of Tris buffer (50 mM TRIS-HCl, pH 7.4). The protein content is estimated by the Bradford or Lowry method. The volume of the membrane suspension is adjusted with the membrane buffer (50 mM Tris-HCl containing 0.1% BSA and 0.1 mM PMSF) to give 3.0 mg/mL (or as appropriate) of protein. The membranes are aliquoted and stored at −70° C. C. Radioligand Binding Assay: In wells of a 96-well format microtiter plate, is added 90, 110 or 130 μL (to make up a final volume of 200 μL) of assay buffer containing 50 mM of Tris-HCl (pH 7.4), […], 1 mg % aprotinin, 1 mg % leupeptin, 2 mg % 1,10-phenanthroline, 10 mg % trypsin inhibitor, and 0.1 mM PMSF. […]

Row | Structure (SMILES) | inhibition at 0.1 µM | other results
1 | O=C(c1ccc2n1Cc1ccccc1N(C(=O)c1ccc(C3CCCCC3)cc1)C2)N1CCC(N2CCCC2)CC1 [Example 25, [10-(4-Cyclohexyl-benzoyl)-10,11-dihydro-5H-pyrrolo[2,1-c][1,4]benzodiazepin-3-yl][4-(1-pyrrolidinyl)-1-piperidinyl]methanone] |  | IC50: 13.2 nM
2 | O=C(O)c1ccc2n1Cc1ccccc1N(C(=O)c1ccc(C3CCCCC3)cc1)C2 [Example 22, 10-(4-Cyclohexyl-benzoyl)-10,11-dihydro-5H-pyrrolo[2,1 c][1,4]benzodiazepine-3-carboxylic acid] |  | OT % inhibition at 100 nM: 34%
3 | O=C(c1ccc(C2CCCCC2)cc1)N1Cc2ccc(C(=O)n3ccnc3)n2Cc2ccccc21 [Example 56, 1H-Imidazol-1-yl-[10-(4-cyclohexyl-benzoyl)-10,11-dihydro-5H-pyrrolo[2,1-c][1,4]benzodiazepin-3-yl]-methanone] | 61% | 
4 | O=C(c1ccc2n1Cc1ccccc1N(C(=O)c1ccc(C3CCCCC3)cc1)C2)N1CCN(c2ncccn2)CC1 [Example 23] |  | IC50: 41.8 nM
5 | CC(=O)NNC(=O)c1ccc2n1Cc1ccccc1N(C(=O)c1ccc(C3CCCCC3)cc1)C2 [Example 11, N′-Acetyl-10-(4-cyclohexyl-benzoyl)-10,11-dihydro-5H-pyrrolo[2,1-c][1,4]benzodiazepine-3-carbonyl-hydrazide] |  | IC50: 52.1 nM
6 | O=C(c1ccc2n1Cc1ccccc1N(C(=O)c1ccc(C3CCCCC3)cc1)C2)N1CCN(c2ccncc2)CC1 [Example 54, [10-(4-Cyclohexyl-benzoyl)-10,11-dihydro-5H-pyrrolo[2,1-c][1,4]benzpdiazepin-3-yl][4-(4-pyridinyl)-1-piperazinyl]-methanone] |  | OT % inhibition at 100 nM: 4%
7 | C=CCN1CCN(C(=O)c2ccc3n2Cc2ccccc2N(C(=O)c2ccc(C4CCCCC4)cc2)C3)CC1 [Example 43, (4-Allyl-1-piperazinyl)[10-(4-cyclohexyl-benzoyl)-10,11-dihydro-5H-pyrrolo[2,1-c][1,4]benzodiazepin-3-yl]methanone] | 1% | 
8 | O=C(NCc1ccncc1)c1ccc2n1Cc1ccccc1N(C(=O)c1ccc(C3CCCCC3)cc1)C2 [Example 53, 10-(4-Cyclohexyl-benzoyl)-N-(4-pyridinylmethyl)-10,11-dihydro-5H-pyrrolo[2,1-c][1,4]benzodiazepine-3-carboxamide] | 25% | 
9 | CN(CCc1ccccn1)C(=O)c1ccc2n1Cc1ccccc1N(C(=O)c1ccc(C3CCCCC3)cc1)C2 [Example 52, 10-(4-Cyclohexyl-benzoyl)-N-methyl-N-[2-(2-pyridinyl)-ethyl]-10,11-dihydro-5H-pyrrolo[2,1-c][1,4]benzodiazepine-3-carboxamide] | 45% | 
10 | O=C(c1ccc(C2CCCCC2)cc1)N1Cc2ccc(C(=O)N3CCC[C@H]3CN3CCCC3)n2Cc2ccccc21 [Example 46, [10-(4-Cyclohexyl-benzoyl)-10,11-dihydro-5H-pyrrolo[2,1-c][1.4]benzodiazepin-3-yl][(2S)-2-(1-pyrrolidinylmethyl)pyrrolidinyl]methanone] |  | OT % inhibition at 100 nM: 91%
11 | O=C(c1ccc2n1Cc1ccccc1N(C(=O)c1ccc(C3CCCCC3)cc1)C2)N1CCC(N2CCCCC2)CC1 [Example 26, [1,4′]Bipiperidinyl-1′-yl-[10-(4-cyclohexyl-benzoyl)-10,11-dihydro-5H-pyrrolo[2,1-c][1,4]benzodiazepin-3-yl]-methanone] |  | IC50: 19.7 nM
12 | CN1CCN(C(=O)C(=O)c2ccc3n2Cc2ccccc2N(C(=O)c2ccc(C4CCCCC4)cc2)C3)CC1 [Example 32, 1-[10-(4-Cyclohexyl-benzoyl)-10,11-dihydro-5H-pyrrolo[2,1-c][1,4]benzodiazepin-3-yl]-2-(4-methyl-1-piperazin-1-yl)-1,2-ethane-1,2-dione] |  | OT % inhibition at 100 nM: 87%
13 | Cc1ccccc1C(=O)NNC(=O)c1ccc2n1Cc1ccccc1N(C(=O)c1ccc(C3CCCCC3)cc1)C2 [Example 12, 10-(4-Cyclohexyl-benzoyl)-N′-(2-methylbenzoyl)-10,11-dihydro-5H-pyrrolo[2,1-c][1,4]benzodiazepine-3-carbonyl-hydrazide] |  | OT % inhibition at 100 nM: 47%

Further lines, with some results ahead:

Row | inhibition at 0.1 µM | Structure (SMILES) | other results
14 | 66% | CN(C)CCCNC(=O)c1ccc2n1Cc1ccccc1N(C(=O)c1ccc(C3CCCCC3)cc1)C2 [Example 33, 10-(4-Cyclohexyl-benzoyl)-N-[3-(dimethylamino)propyl]-10,11-dihydro-5H-pyrrolo[2,1-c][1,4]benzodiazepine-3-carboxamide] | 
15 | 42% | COc1ccc(NC(=O)c2ccc3n2Cc2ccccc2N(C(=O)c2ccc(C4CCCCC4)cc2)C3)cc1 [Example 29, 10-(4-Cyclohexyl-benzoyl)-10,11-dihydro-5H-pyrrolo[2,1-c][1,4]benzodiazepine-3-carboxylic acid (4-methoxy-phenyl)-amide] | 
16 | 31% | CN(C)CCN1CCN(C(=O)c2ccc3n2Cc2ccccc2N(C(=O)c2ccc(C4CCCCC4)cc2)C3)CC1 [Example 41, [10-(4-Cyclohexyl-benzoyl)-10,11-dihydro-5H-pyrrolo[2,1-c][1,4]benzodiazepin-3-yl]{4-[2-(dimethylamino)ethyl]-1-piperazinyl}methanone] | 
17 | 13% | O=C(NCCCn1ccnc1)c1ccc2n1Cc1ccccc1N(C(=O)c1ccc(C3CCCCC3)cc1)C2 [Example 36, 10-(4-Cyclohexyl-benzoyl)-N-[3-(1H-imidazol-1-yl)propyl]-10,11-dihydro-5H-pyrrolo[2,1-c][1,4]benzodiazepine-3-carboxamide] | 
18 | -5% | CN(C)CCN(C)C(=O)c1ccc2n1Cc1ccccc1N(C(=O)c1ccc(C3CCCCC3)cc1)C2 [Example 34, 10-(4-Cyclohexyl-benzoyl)-N-[2-(dimethylamino)-ethyl]-N-methyl-10,11-dihydro-5H-pyrrolo[2,1-c][1,4]benzodiazepine-3-carboxamide] | 
19 | 61% | O=C(NCCN1CCCCC1)c1ccc2n1Cc1ccccc1N(C(=O)c1ccc(C3CCCCC3)cc1)C2 [Example 37, 10-(4-Cyclohexyl-benzoyl)-N-[2-(1-piperidinyl)ethyl]-10,11-dihydro-5H-pyrrolo[2,1-c][1,4]benzodiazepine-3-carboxamide] | 
20 | 55% | CN(C)CCCN(C)C(=O)c1ccc2n1Cc1ccccc1N(C(=O)c1ccc(C3CCCCC3)cc1)C2 [Example 35, 10-(4-Cyclohexyl-benzoyl)-N-[3-(dimethylamino)propyl]N-methyl-10,11-dihydro-5H-pyrrolo[2,1-c][1,4]benzodiazepine-3-carboxamide] | 
